Source: paper PMC11088877, “AMP-activated protein kinase can be allosterically activated by ADP but AMP remains the key activating ligand” (Biochemical Journal, 2024)
Where two headings read alike, the source gives them in different places.

Tests used:
[1] = target: T1, unphosphorylated human α2β2γ1 complex (WT) (Homo sapiens, UniProt P54619+P54646); assay: AMPK activation and Thr172 phosphorylation by the LKB1:STRADα:MO25α complex, WT; assay type: biochemical; settings: 300 µM nucleotide, 200 µM Mg.ATP2−
T1 construct: made in house; host or cells: Escherichia coli
Method: (§1) The relative roles of the three CBS sites in the other two mechanisms of activation of AMPK by AMP or ADP, i.e. promotion of Thr172 phosphorylation by LKB1, and protection against Thr172 dephosphorylation by protein phosphatases, have not been examined previously. As expected, incubation of the α2β2γ1 AMPK complex with a fixed, limiting amount of purified LKB1:STRADα:MO25α complex in the presence of 200 µM Mg.ATP^2− caused a large degree of activation (Figure 5A) and phosphorylation (Figure 5B) of AMPK (unphosphorylated α2β2γ1 complex), which were stimulated more than 2-fold by 300 µM AMP and 1.6-fold by 300 µM ADP.
(§2) Figure 5. Effects of AMP or ADP on AMPK activation and Thr172 phosphorylation by the LKB1:STRADα:MO25α complex. Unphosphorylated human α2β2γ1 complexes (WT, or with L129D/V130D, V276G/L277G or I312G mutations affecting CBS1, CBS3 or CBS4 respectively) were incubated with ATP and a fixed concentration of the LKB1:STRADα:MO25α complex in the presence or absence of AMP or ADP (both 300 µM), as described in the Materials and methods section. After the incubation aliquots were withdrawn for (A) AMPK assay or (B) Western blots. […] For (B), due to a limit on the number of lanes that could be run on one gel, single replicates from the triplicate assays were analysed. […]

[2] = target: T2, human α2β2γ1 complex, CBS1 mutant (L129D/V130D) (Homo sapiens, UniProt P54619+P54646, L129D/V130D); assay: AMPK activation and Thr172 phosphorylation by the LKB1 complex, CBS1 mutant; assay type: biochemical; settings: 300 µM nucleotide, 200 µM ATP
T2 construct: made in house; host or cells: Escherichia coli
Method: as §1, §2

[3] = target: T3, human α2β2γ1 complex, CBS3 mutant (V276G/L277G) (Homo sapiens, UniProt P54619+P54646, L277G/V276G); assay: AMPK activation and Thr172 phosphorylation by the LKB1 complex, CBS3 mutant; assay type: biochemical; settings: 300 µM nucleotide, 200 µM ATP
T3 construct: made in house; host or cells: Escherichia coli
Method: as §1, §2

[4] = target: T4, human α2β2γ1 complex, CBS4 mutant (I312G) (Homo sapiens, UniProt P54619+P54646, I312G); assay: AMPK activation and Thr172 phosphorylation by the LKB1 complex, CBS4 mutant; assay type: biochemical; settings: 300 µM nucleotide, 200 µM ATP
T4 construct: made in house; host or cells: Escherichia coli
Method: as §1, §2

[5] = target: T2, human α2β2γ1 complex, CBS1 mutant (L129D/V130D); assay: AMPK inactivation and Thr172 dephosphorylation by PPM1A, CBS1 mutant; assay type: biochemical; settings: 300 µM nucleotide, absence of ATP
Method: as §1
(§3) Figure 6. Effects of AMP or ADP on AMPK inactivation and Thr172 dephosphorylation by PP2Cα (PPM1A). Human α2β2γ1 complexes (WT, or with L129D/V130D, V276G/L277G or I312G mutations affecting CBS1, CBS3 or CBS4 respectively), all phosphorylated on Thr172, were incubated with a fixed concentration of PP2Cα (PPM1A) in the presence or absence of AMP or ADP (both 300 µM) as described in the Materials and methods section. After the incubation, aliquots were withdrawn for (A) AMPK assay or (B) Western blots. […] For (B), due to a limit on the number of lanes that could be run on one gel, single replicates from the triplicate assays were analysed. […]

[6] = target: T3, human α2β2γ1 complex, CBS3 mutant (V276G/L277G); assay: AMPK inactivation and Thr172 dephosphorylation by PPM1A, CBS3 mutant; assay type: biochemical; settings: 300 µM nucleotide, absence of ATP
Method: as §1, §3

[7] = target: T4, human α2β2γ1 complex, CBS4 mutant (I312G); assay: AMPK inactivation and Thr172 dephosphorylation by PPM1A, CBS4 mutant; assay type: biochemical; settings: 300 µM nucleotide, absence of ATP
Method: as §1, §3

[8] = target: bacterially expressed AMPK heterotrimers (γ subunit CBS sites); settings: cited from earlier work
[9] = tested on: bacterially expressed AMPK; settings: 5 mM Mg2+, 200 µM ATP, cited from earlier work
[10] = in the presence of Mg2+ and staurosporine, read-out: estimated Kd at the CBS3 site

T3 sequence (P54619 whole entry V276G/L277G): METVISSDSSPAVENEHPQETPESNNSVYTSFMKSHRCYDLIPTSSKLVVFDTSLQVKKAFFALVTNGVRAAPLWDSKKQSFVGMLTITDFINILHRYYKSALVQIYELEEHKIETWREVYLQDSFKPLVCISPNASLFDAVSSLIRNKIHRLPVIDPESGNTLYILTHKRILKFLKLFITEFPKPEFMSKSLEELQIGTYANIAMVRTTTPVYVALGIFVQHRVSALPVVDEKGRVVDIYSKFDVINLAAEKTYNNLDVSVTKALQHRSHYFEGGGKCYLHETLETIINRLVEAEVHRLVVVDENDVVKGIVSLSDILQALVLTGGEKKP
T3 sequence (P54646 whole entry): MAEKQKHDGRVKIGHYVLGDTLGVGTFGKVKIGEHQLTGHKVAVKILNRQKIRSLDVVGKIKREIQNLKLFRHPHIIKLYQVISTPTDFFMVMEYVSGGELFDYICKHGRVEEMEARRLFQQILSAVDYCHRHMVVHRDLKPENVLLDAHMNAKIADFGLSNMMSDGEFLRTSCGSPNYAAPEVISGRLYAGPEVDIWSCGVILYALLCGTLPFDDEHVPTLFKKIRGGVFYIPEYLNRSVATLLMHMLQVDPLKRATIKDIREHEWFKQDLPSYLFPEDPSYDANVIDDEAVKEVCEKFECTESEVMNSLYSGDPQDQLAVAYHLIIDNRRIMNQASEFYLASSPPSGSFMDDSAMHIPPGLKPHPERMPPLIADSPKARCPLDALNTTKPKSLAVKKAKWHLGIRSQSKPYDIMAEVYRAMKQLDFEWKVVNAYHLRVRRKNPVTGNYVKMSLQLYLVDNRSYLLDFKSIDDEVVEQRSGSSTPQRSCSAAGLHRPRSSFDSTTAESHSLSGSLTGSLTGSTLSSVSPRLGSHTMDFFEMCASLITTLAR
T3 sequence (O43741 whole entry partner): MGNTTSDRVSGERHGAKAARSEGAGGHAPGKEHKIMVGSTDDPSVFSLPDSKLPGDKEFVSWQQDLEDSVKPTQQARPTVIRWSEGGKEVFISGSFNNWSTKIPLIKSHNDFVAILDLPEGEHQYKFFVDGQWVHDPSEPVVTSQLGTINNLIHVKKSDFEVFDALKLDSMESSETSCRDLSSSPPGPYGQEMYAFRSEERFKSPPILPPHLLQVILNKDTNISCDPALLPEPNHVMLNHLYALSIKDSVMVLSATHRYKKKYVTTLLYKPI
T4 sequence (P54619 whole entry I312G): as the sequence (P54619 whole entry V276G/L277G) above, with G276V, G277L, I312G counted along it
T4 sequence (P54646 whole entry): as the sequence (P54646 whole entry) above
T4 sequence (O43741 whole entry partner): as the sequence (O43741 whole entry partner) above
T2 sequence (P54619 whole entry L129D/V130D): as the sequence (P54619 whole entry V276G/L277G) above, with L129D, V130D, G276V, G277L counted along it
T2 sequence (P54646 whole entry): as the sequence (P54646 whole entry) above
T2 sequence (O43741 whole entry partner): as the sequence (O43741 whole entry partner) above
T1 sequence (P54619 whole entry): as the sequence (P54619 whole entry V276G/L277G) above, with G276V, G277L counted along it
T1 sequence (P54646 whole entry): as the sequence (P54646 whole entry) above
T1 sequence (O43741 whole entry partner): as the sequence (O43741 whole entry partner) above

SMILES	stimulation of activation and phosphorylation of AMPK by LKB1:STRADα:MO25α complex [1]	effect of nucleotide on activation/phosphorylation by LKB1 in the mutant [2]	effect of nucleotide on activation/phosphorylation by LKB1 in the mutant [3]	effect of nucleotide on activation/phosphorylation by LKB1 in the mutant [4]	protective effect of nucleotide against PPM1A in the mutant [5]	protective effect of nucleotide against PPM1A in the mutant [6]	protective effect of nucleotide against PPM1A in the mutant [7]	Kd [8, 10]	effect on kinase activity ([9]; 200 µM ADP)	allosteric activation ([9]; any ADP concentration up to 200 µM)	Kd ([8]; various bacterially expressed heterotrimers, read-out: Kd, AMP-binding site of high affinity)	Kd ([8]; various bacterially expressed heterotrimers, read-out: Kd, AMP-binding site of low affinity)	allosteric activation ([9]; 200 µM AMP)
Nc1ncnc2c1ncn2[C@@H]1O[C@H](COP(=O)(O)OP(=O)(O)O)[C@@H](O)[C@H]1O [ADP]	1.6 fold	unaffected	abolished	abolished	unaffected	almost completely abolished	almost completely abolished	12 to 24 µM	a small inhibition	no allosteric activation	–	–	–
Nc1ncnc2c1ncn2[C@@H]1O[C@H](COP(=O)(O)O)[C@@H](O)[C@H]1O [AMP]	more than 2 fold	unaffected	abolished	abolished	unaffected	almost completely abolished	almost completely abolished	1 to 2 µM	–	–	2 to 4 µM	40 to 400 µM	~2 fold
